Data published in patent US10780092B2, “Fused pyrazine derivatives useful as soluble guanylate cyclase stimulators” (Merck Sharp & Dohme Corp., priority 2016, dated 2020).

Legend:
[1] = target: human recombinant sGC enzyme (Homo sapiens (Human), UniProt Q02108+Q02153); test: SEC competition binding assay with [3H] Compound B radioligand; settings: displacement of 1.6 nM [3H] Compound B, 24 h at 37° C.
How it was run: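 Competition format: [3H] Compound B (1.6 nM) displaced from human recombinant sGC over 24 h at 37° C. in triethanolamine pH 7.4 buffer with MgCl2, BSA, DTT, 300 μM DETA/NO and 400 μM GTP (1% DMSO). Gel-filtration eluates counted by liquid scintillation; 1 μM Compound B defined non-specific binding; Ki by one-site fit.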

sGC α1/β1 heterodimer = sGC α1/β1 heterodimer (Homo sapiens (Human), UniProt Q02108+Q02153); test: Cell-based sGC functional assay (CASA assay), cGMP by HTRF; settings: CHO-K1/sGC cells; for Emax: CHO-K1, cGMP production as percentage of maximum of compound A (set to 100%), read-out: % Activation; for EC50: inflection point of cGMP production, 4P fit, read-out: IP
How it was run: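 cGMP made in CHO-K1/sGC (human α1/β1) cells is read by HTRF after compound treatment for 1 hr at 37° C, following 30 min at 25° C with or without 1 μM DETA-NO; IBMX 0.5 mM present. Values are % of standard compound maximum; 4P fit.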

Row | SMILES | Ki [1] [µM] | Emax (sGC α1/β1 heterodimer) [%] | EC50 (sGC α1/β1 heterodimer) [µM] | % Activation (sGC α1/β1 heterodimer; cGMP production as percentage of maximum of compound A (set to 100%)) [%]
1 | CCCCc1nc(-c2nc(N)c3c(n2)NC(=O)C3(C)c2cc(O)ccn2)cn2ncnc12 (stereo not drawn) [Example 118-B, 4-Amino-2-(8-butyl-[1,2,4]triazolo[1,5-a]-pyrazin-6-yl)-5-(4-hydroxypyridin-2-yl)-5-methyl-5,7-dihydro-6H-pyrrolo[2,3-d]-pyrimidin-6-one] | 0.00795 | 103 | 0.457 | –
2 | CC(C)CCc1nc(-c2nc(N)c3c(n2)NC(=O)C3(C)c2cc(O)ccn2)cn2ncnc12 (stereo not drawn) [Example 119-B, 4-Amino-5-(4-hydroxypyridin-2-yl)-2-(8-isopentyl-[1,2,4]-triazolo[1,5-a]pyrazin-6-yl)-5-methyl-5,7-dihydro-6H-pyrrolo-[2,3-d]pyrimidin-6-one] | 0.00276 | 75 | 0.681 | –
3 | CC1(c2cccc(O)c2)C(=O)Nc2nc(-c3cn4ccnc4c(Cc4cccc(F)c4)n3)nc(N)c21 (stereo not drawn) [Example 121-B, 4-Amino-2-{8-[(3-fluorophenyl)methyl]imidazo[1,2-a]pyrazin-6-yl}-5-(3-hydroxyphenyl)-5-methyl-5,7-dihydro-6H-pyrrolo[2,3-d]pyrimidin-6-one] | 0.000382 | 120 | 0.369 | –
4 | Cc1cccc(Cc2nc(-c3nc(N)c4c(n3)NC(=O)C4(C)c3cccc(O)c3)cn3ccnc23)c1 (stereo not drawn) [Example 122-B, 4-Amino-5-(3-hydroxy-phenyl)-5-methyl-2-{8-[(3-methylphenyl)methyl]-imidazo[1,2-a]pyrazin-6-yl}-5,7-dihydro-6H-pyrrolo-[2,3-d]pyrimidin-6-one] | 0.0156 | 106 | 1.82 | –
5 | CC1(c2cccc(O)c2)C(=O)Nc2nc(-c3cn4ccnc4c(Cc4ccccc4)n3)nc(N)c21 (stereo not drawn) [Example 123-B, 4-Amino-2-(8-benzyl-imidaxol[1,2-a]pyrazin-6-yl)-5-(3-hydroxyphenyl)-5-methyl-5,7-dihydro-6H-pyrrolo[2,3-d]pyrimidin-6-one] | 0.000372 | 107 | 0.768 | –
6 | CC1(c2cccc(O)c2)C(=O)Nc2nc(-c3cn4ccnc4c(Cc4cccc(Cl)c4)n3)nc(N)c21 (stereo not drawn) [Example 124-B, 4-Amino-2-{8-[(3-chlorophenyl)methyl]-imidazo[1,2-a]pyrazin-6-yl}-5-(3-hydroxyphenyl)-5-methyl-5,7-dihydro-6H-pyrrolo[2,3-d]pyrimidin-6-one] | 0.00263 | 113 | 0.224 | –
7 | CC1(c2ccc(O)c(F)c2)C(=O)Nc2nc(-c3cn4ccnc4c(Cc4cccc(F)c4)n3)nc(N)c21 (stereo not drawn) [Example 125-B, 4-Amino-5-(3-fluoro-4-hydroxyphenyl)-2-{8-[(3-fluorophenyl)methyl]-imidazo[1,2-a]pyrazin-6-yl}-5-methyl-5,7-dihydro-6H-pyrrolo[2,3-d]-pyrimidin-6-one] | 0.000508 | 164 | 0.601 | –
8 | CC1(c2ccc(O)c(F)c2)C(=O)Nc2nc(-c3cn4ccnc4c(Cc4cccc(Cl)c4)n3)nc(N)c21 (stereo not drawn) [Example 126-B, 4-Amino-2-{8-[(3-chlorophenyl)methyl]-imidazo[1,2-a]pyrazin-6-yl}-5-(3-fluoro-4-hydroxy-phenyl)-5-methyl-5,7-dihydro-6H-pyrrolo-[2,3-d]pyrimidin-6-one] | 0.0011 | 206 | 0.391 | –
9 | Cc1cccc(Cc2nc(-c3nc(N)c4c(n3)NC(=O)C4(C)c3ccc(O)c(F)c3)cn3ccnc23)c1 (stereo not drawn) [Example 127-B, 4-Amino-5-(3-fluoro-4-hydroxyphenyl)-5-methyl-2-{8-[(3-methylphenyl)-methyl]imidazo[1,2-a]-pyrazin-6-yl}-5,7-dihydro-6H-pyrrolo[2,3-d]-pyrimidin-6-one] | 0.00972 | 118 | 9.98 | –
10 | CC1(c2ccc(O)c(F)c2)C(=O)Nc2nc(-c3cn4ccnc4c(Cc4ccccc4)n3)nc(N)c21 (stereo not drawn) [Example 128-B, 4-Amino-2-(8-benzyl-imidazo[1,2-a]pyrazin-6-yl)-5-(3-fluoro-4-hydroxyphenyl)-5-methyl-5,7-dihydro-6H-pyrrolo[2,3-d]-pyrimidin-6-one] | 0.000646 | 137 | 1.2 | –
11 | CC1(c2ccc(F)c(O)c2)C(=O)Nc2nc(-c3cn4ccnc4c(CCC(F)(F)C(F)(F)F)n3)nc(N3CC(O)(C(F)(F)F)C3)c21 (stereo not drawn) [Example 129-B, 5-(4-Fluoro-3-hydroxyphenyl)-4-(3-hydroxy-3-(trifluoromethyl)azetidin-1-yl)-5-methyl-2-(8-(3,3,4,4,4-pentafluorobutyl)imidazo[1,2-a]pyrazin-6-yl)-5,7-dihydro-6H-pyrrolo[2,3-d]pyrimidin-6-one] | 0.002 | 84 | 1.89 | –
12 | CC1(c2ccc(O)c(F)c2)C(=O)Nc2nc(-c3cn4ccnc4c(CCC(F)(F)C(F)(F)F)n3)nc(N3CC(O)(C(F)(F)F)C3)c21 (stereo not drawn) [Example 130-A, 5-(3-Fluoro-4-hydroxyphenyl)-4-(3-hydroxy-3-(trifluoromethyl)azetidin-1-yl)-5-methyl-2-(8-(3,3,4,4,4-pentafluorobutyl)imidazo[1,2-a]pyrazin-6-yl)-5,7-dihydro-6H-pyrrolo[2,3-d]pyrimidin-6-one] | 0.00715 | 81 | 1.92 | –
13 | CC1(c2ccc(Cl)c(O)c2)C(=O)Nc2nc(-c3cn4ccnc4c(Cc4cccc(F)c4)n3)nc(NCC(O)C(F)(F)F)c21 (stereo not drawn) [Example 131-AA, 5-(4-Chloro-3-hydroxy-phenyl)-2-{8-[(3-fluoro-phenyl)methyl]imidazo-[1,2-a]pyrazin-6-yl}-5-methyl-4-[(3,3,3-trifluoro-2-hydroxypropyl)amino]-5,7-dihydro-6H-pyrrolo-[2,3-d]pyrimidin-6-one] | 0.000884 | 89 | 0.427 | –
14 | CC1(c2ccc(Cl)c(O)c2)C(=O)Nc2nc(-c3cn4ccnc4c(Cc4cccc(F)c4)n3)nc(NCC(O)C(F)(F)F)c21 (stereo not drawn) [Example 131-AB, 5-(4-Chloro-3-hydroxyphenyl)-2-{8-[(3-fluorophenyl)methyl]imidazo[1,2-a]pyrazin-6-yl}-5-methyl-4-[(3,3,3-trifluoro-2-hydroxypropyl)amino]-5,7-dihydro-6H-pyrrolo[2,3-d]pyrimidin-6-one] | 0.000347 | – | 0.292 | 96
15 | CN1CCN(c2nc(-c3cn4ccnc4c(Cc4ccc(F)cc4)n3)nc3c2C(C)(c2ccc(Cl)c(O)c2)C(=O)N3)CC1 (stereo not drawn) [Example 134-A, 5-(4-Chloro-3-hydroxy-phenyl)-2-{8-[(4-fluoro-phenyl)methyl]imidazo-[1,2-a]pyrazin-6-yl}-5-methyl-4-(4-methyl-piperazin-1-yl)-5,7-dihydro-6H-pyrrolo-[2,3-d]pyrimidin-6-one] | 0.000592 | 102 | 0.333 | –
16 | CC1(c2cccc(O)c2)C(=O)Nc2nc(-c3cn4ccnc4c(Cc4ccc(F)cc4)n3)nc(N3CCC(F)(F)CC3)c21 (stereo not drawn) [Example 135-B, 4-(4,4-Difluoropiperidin-1-yl)-2-{8-[(4-fluoro-phenyl)methyl]imidazo-[1,2-a]-pyrazin-6-yl}-5-(3-hydroxyphenyl)-5-methyl-5,7-dihydro-6H-pyrrolo[2,3-d]pyrimidin-6-one] | 0.00401 | 103 | 0.966 | –
17 | CC1(c2ccc(Cl)c(O)c2)C(=O)Nc2nc(-c3cn4ccnc4c(Cc4ccc(F)cc4)n3)nc(N3CCC(F)(F)CC3)c21 (stereo not drawn) [Example 136-A, 5-(4-Chloro-3-hydroxy-phenyl)-4-(4,4-difluoro-piperidin-1-yl)-2-{8-[(4-fluorophenyl)methyl]-imidazo[1,2-a]pyrazin-6-yl}-5-methyl-5,7-dihydro-6H-pyrrolo[2,3-d]-pyrimidin-6-one] | 0.00157 | 66 | 0.511 | –
18 | CC1(c2ccc(Cl)c(O)c2)C(=O)Nc2nc(-c3cn4ncnc4c(CCC(F)(F)C(F)(F)F)n3)nc(N3CCC(C(F)(F)F)CC3)c21 (stereo not drawn) [Example 137-A, 5-(4-Chloro-3-hydroxy-phenyl)-5-methyl-2-(8-(3,3,4,4,4-pentafluoro-butyl)-[1,2,4]triazolo-[1,5-a]pyrazin-6-yl)-4-(4-(trifluoromethyl)-piperidin-1-yl)-5,7-dihydro-6H-pyrrolo-[2,3-d]pyrimidin-6-one] | 0.00263 | 99 | 0.744 | –
19 | CC1(c2ccc(Cl)c(O)c2)C(=O)Nc2nc(-c3cn4ncnc4c(CCC(F)(F)C(F)(F)F)n3)nc(NCCC(F)(F)F)c21 (stereo not drawn) [Example 138-A, 5-(4-Chloro-3-hydroxy-phenyl)-5-methyl-2-(8-(3,3,4,4,4-pentafluoro-butyl)-[1,2,4]triazolo-[1,5-a]pyrazin-6-yl)-4-((3,3,3-trifluoropropyl)-amino)-5,7-dihydro-6H-pyrrolo[2,3-d]pyrimidin-6-one] | 0.00462 | 65 | 0.169 | –
20 | CC1(c2ccc(Cl)c(O)c2)C(=O)Nc2nc(-c3cn4ncnc4c(CCC(F)(F)C(F)(F)F)n3)nc(NCCCC(F)(F)F)c21 (stereo not drawn) [Example 139-A, 5-(4-Chloro-3-hydroxy-phenyl)-5-methyl-2-(8-(3,3,4,4,4-pentafluoro-butyl)-[1,2,4]triazolo-[1,5-a]pyrazin-6-yl)-4-((4,4,4-trifluorobutyl)-amino)-5,7-dihydro-6H-pyrrolo[2,3-d]pyrimidin-6-one] | 0.00354 | 68 | 0.349 | –
